The results in this text go back to patent US20130324605A1, “USES OF CIMIRACEMATE A AND RELATED COMPOUNDS FOR TREATING INFLAMMATION AND MODULATING IMMUNE RESPONSES” (VERSITECH LIMITED, priority 2010, published 2013).

Experiment [1] relates to LPS-induced TNF-α protein production. Description: LPS-induced TNF-α production in primary blood macrophages (ELISA). The class given is cell-based. The conditions noted are these: Homo sapiens, Macrophage, PBMac. Here is the method: FIGS. 6A-6B show inhibition of LPS-induced TNF-α production by B22EES1-8-3 and dexamethasone. PBMac were incubated with (A) 140 μM B22EES1-8-3 or (B) 1.3 or 5.1 μM dexamethasone (Dex) for 24 hr prior to the addition of 1 ng/mL and 10 ng/mL LPS for another 24 hr. The culture supernatants were collected and assayed for TNF-α by ELISA. The results shown were the mean values±standard derivation (S.D.) of 6 independent experiments, with cells obtained from different donors. * P<0.05, compared with the corresponding control.
Cell Culture and Primary Blood Macrophage Isolation Human peripheral blood monocytic cells (PBMC) were isolated from the buffy coat of healthy donor blood supplied by Hong Kong Red Cross by Ficoll-Paque (Amersham Pharmacia Biotech, Piscataway, N.J.) density gradient centrifugation as described in our previous reports^36-38. In brief, the buffy coat was spun at 3000 rotations per min (rpm) for 15 min to separate the blood cells and the plasma. The heat inactivated serum was filtered for future use.
The adherent monocytic cells were detached and seeded onto tissue culture plates and incubated for another 7-14 days in order to differentiate the primary blood monocytic cells to primary blood macrophages (PBMac).
Culture supernatants of the LPS-treated PBMac, with or without B22EES1-8-3 pretreatment, were collected at different time intervals and stored at −70° C. The levels of the secreted TNF-α were measured by ELISA kits specific for the cytokine (R&D system, Minneapolis, Minn.).
To confirm the activities of Cim A in suppressing TNF-α production, Cim A was incubated with PBMac for 24 hr prior the addition of LPS at concentrations of 1 ng/mL and 10 ng/mL for 24 hr. The culture supernatants were collected and measured by ELISA for the level of secreted TNF-α.
To further compare the efficiency of Cim A with existing drugs, dexamethasone, a potent immunosuppressive corticosteroid, was used as a prototype. PBMac were treated with dexamethasone for 24 hr prior to the addition of LPS at concentrations of 1 ng/mL and 10 ng/mL for 24 hr.

For a further experiment, the system named is 5-LOX. Description: 5-LOX inhibitor screening assay (Cayman kit). The format is biochemical. The conditions noted are these: 12.5, 25 and 50 μg/ml, linoleic acid substrate, 5 min incubation, FIG. 1A. Here is the method:
The 5-LOX inhibition assay was performed using Cayman's Lipoxygenase Inhibitor Screening Assay Kit (Cayman Chemical Company, Ann Arbor, Mich.) according to the manufacturer's instructions. The 5-LOX enzyme and Linoleic acid (Substrate) were added together in the presence of DMSO (Control) and Cim A at a concentration ranging from 12.5 to 50 μg/ml. After incubation for 5 min, developing agents were added. The production of hydroperoxides was measured and quantified with the use of a microplate reader at wavelength of 490 nm. The 5-LOX enzymatic activity is calculated as nmol/min/ml.
Briefly, 5-LOX inhibition assay was performed by using Cayman's lipoxygenase inhibitor screening assay kit (Cayman Chemical Company, Ann Arbor, Mich.) according to the manufacturer's instructions. The 5-LOX and linoleic acid (substrate) were added simultaneously into dimethyl sulfoxide (DMSO) (Control) or Cim A at a concentration of 12.5, 25, and 50 μg/ml, respectively. After incubation for 5 min, developing reagents for the 5-LOX inhibition assay were added. Hydroperoxide production was measured using a microplate reader at a wavelength of 490 nm. The 5-LOX enzymatic activity is calculated as nmol/min/ml.

In another experiment the test system is ERK1/2. Description: LPS-induced phosphorylation of ERK1/2 in PBMac (Western blot). The class given is cell-based, human. The conditions noted are these: 140 μM for 24 h prior to 10 ng/mL LPS for 15 min. Here is the method: FIGS. 7A-7C show the effects of Cim A (B22EES1-8-3) on LPS-induced phosphorylation (phospho-) of ERK1/2 and p38 MAP kinases, and nuclear translocation of NF-KB p65. PBMac were incubated with B22EES1-8-3 (140 μM) for 24 h prior to the addition of 10 ng/mL LPS for an additional 15 min. Cytoplasmic (A, B) and nuclear (C) proteins were harvested for Western Blotting: (A) Cytoplasmic proteins: phospho-ERK1/2 and total ERK1/2. (B) Cytoplasmic proteins: phospho-p38 and total p38 kinase. (C) Nuclear proteins: upper panel, NF-κB p65 and lamin B; lower panel, the intensity of corresponding lanes in the gel photograph of NF-κB p65 was shown. […]
Whole cell lysate (20 μg) or nuclear protein (2 μg) were separated by sodium dodecyl sulfate polyacrylamide gel electrophoresis (SDS-PAGE) and transferred to nitrocellulose membranes for probing overnight with the respective antibodies specific for the phosphorylated or total form of ERK1/2 and p38 MAPK (Cell Signaling Technology, Beverly, Mass.), NF-KB p65 protein and lamin B (Santa Cruz Biotechnology, Santa Cruz, Calif.). […] In order to quantify the results from the Western blots, the gels were scanned and the intensity of the bands was analyzed by a computer program Quantity One from BioRad. […]

The subject of experiment [2] is leukotriene B4 (LTB4) production. Put plainly: Leukotriene B4 production in activated human blood mononuclear cells. The format is cell-based. The note with it: 25 or 50 μg/ml for 1 hour, then calcium ionophore A23187 30 min, PBMC, FIG. 1B. The procedure: Freshly isolated human blood mononuclear cells (PBMC) (1×10^7) were pre-treated with 0.05% DMSO or Cim A (25 or 50 μg/ml) for 1 h, followed by addition of 5 μM Calcium ionophore A23187 (Sigma Aldrich, St. Louis, Mo.) for 30 min. After centrifugation for 1 min, the supernatants were collected. The level of leukotriene B4 (LTB4) was measured using LTB4 parameter assay kit (R&D Systems, Minneapolis, Minn.).
This Example investigates the effects of Cim A on LTB4 production. Briefly, freshly isolated human blood mononuclear cells (1×10^7) were pretreated with 0.05% DMSO or Cim A (25 or 50 μg/ml) for 1 hour, followed by the addition of calcium ionophore A23187 at a concentration of […] (Sigma Aldrich, St. Louis, Mo.) for 30 min. After centrifugation for 1 min, the supernatant was collected. The level of leukotriene B4 (LTB4) was measured by using a LTB4 assay kit (R&D Systems, Minneapolis, Minn.).

One may read the inhibition as the relative decrease from the control value, in per cent. A low value points to a response near the control. For the compound `C[C@@H]1C[C@H]2[C@@H]3CCC4=CC(=O)C=C[C@]4(C)[C@@]3(F)[C@@H](O)C[C@]2(C)[C@@]1(O)C(=O)CO` [dexamethasone, Dexamethasone, reference compound], the inhibition at 1.3 µM in experiment [1] (1.3 μM for 24 hr prior to LPS for 24 hr) was 32 ± 7.5%. Further, the inhibition at 5.1 µM in experiment [1] (5.1 μM for 24 hr prior to LPS for 24 hr) was determined as 25 ± 6.3%.

In the case of `COc1ccc(/C=C/C(=O)OCC(=O)Cc2ccc(O)c(O)c2)cc1O` [Cim A, Cimiracemate A], the “5-LOX enzymatic activity (hydroperoxide production)” value in the experiment with 5-LOX is “potently suppressed 5-LOX activity in a dose-dependent manner”. In addition, the figures for the inhibition at 140 µM in experiment [1] (140 μM for 24 hr prior to LPS 1 ng/mL for 24 hr) and in experiment [1] (140 μM for 24 hr prior to LPS 10 ng/mL for 24 hr) were 47 ± 19% and 58 ± 30%, respectively. Besides, the “LPS-induced phosphorylation of ERK1/2” value in the experiment on ERK1/2 is “suppressed”. In addition, the “production of LTB4” value in experiment [2] is listed as “inhibits the production of LTB4 in a dose-dependent manner”.
